{"source": "paper PMC7186572", "about": "“Functional Identification and Structural Analysis of a New Lipoate Protein Ligase in Mycoplasma hyopneumoniae” (Frontiers in Cellular and Infection Microbiology, 2020)", "key": {"Mhp-Lpl [1]": {"biological_target": "T1, Mhp-Lpl (Mesomycoplasma hyopneumoniae, UniProt Q4AA29)", "T1 construct": "gene lplA-1; full length, 343 residues, C-terminal His tag, pET32a NdeI/XhoI, synthetic E. coli codon-optimised gene (TGA to TGG), expressed in E. coli BL21(DE3), about 40 kDa", "T1 sequence (Q4AA29 1-342 limits assumed)": "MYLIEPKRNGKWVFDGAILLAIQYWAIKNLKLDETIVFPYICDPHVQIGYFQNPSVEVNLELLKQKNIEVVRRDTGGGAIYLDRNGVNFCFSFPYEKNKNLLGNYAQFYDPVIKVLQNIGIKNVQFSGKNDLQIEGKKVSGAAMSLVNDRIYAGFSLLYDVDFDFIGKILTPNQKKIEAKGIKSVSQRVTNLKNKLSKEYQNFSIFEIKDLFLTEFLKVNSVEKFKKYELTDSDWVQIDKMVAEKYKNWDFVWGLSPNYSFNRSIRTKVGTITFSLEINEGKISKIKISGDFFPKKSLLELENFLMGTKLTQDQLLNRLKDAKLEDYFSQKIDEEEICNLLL", "assay": "X-ray crystallography, […] Å", "assay_type": "binding", "settings": "enzyme reacted with ATP and lipoic acid, then further purified and crystallised; partial occupancy; active site; reaction intermediate; an unidentified AMP-fatty acid co-purifies from E. coli"}, "[2]": {"biological_target": "T2, large domain of Mhp-Lpl (ML) (Mesomycoplasma hyopneumoniae, UniProt Q4AA29)", "T2 construct": "gene lplA-1; large N-terminal domain, residues 1-254, C-terminal His tag, pET32a, expressed in E. coli BL21(DE3)", "T2 sequence (Q4AA29 1-256 limits assumed)": "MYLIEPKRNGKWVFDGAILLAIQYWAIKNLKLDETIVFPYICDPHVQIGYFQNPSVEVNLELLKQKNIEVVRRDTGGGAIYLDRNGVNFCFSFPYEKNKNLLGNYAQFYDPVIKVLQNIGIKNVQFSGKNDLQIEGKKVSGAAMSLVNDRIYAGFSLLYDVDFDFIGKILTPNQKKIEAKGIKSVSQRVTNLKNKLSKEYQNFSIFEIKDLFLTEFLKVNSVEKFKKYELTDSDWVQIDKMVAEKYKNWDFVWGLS", "assay": "western blot of GcvH lipoylation with anti-lipoic acid antibody", "assay_type": "biochemical", "settings": "1 mM lipoic acid, 5 mM ATP, 1 mM MgCl2, 5 mM DTT, 20 μM apo Mhp H as acceptor, pH 7.0, 37 °C, 4 h"}, "E. coli LplA": {"biological_target": "T3, E. coli LplA (Escherichia coli, UniProt P32099)", "T3 construct": "full length, C-terminal His tag, pET32a NdeI/XhoI, expressed in E. coli BL21(DE3)", "T3 sequence (P32099 2-338)": "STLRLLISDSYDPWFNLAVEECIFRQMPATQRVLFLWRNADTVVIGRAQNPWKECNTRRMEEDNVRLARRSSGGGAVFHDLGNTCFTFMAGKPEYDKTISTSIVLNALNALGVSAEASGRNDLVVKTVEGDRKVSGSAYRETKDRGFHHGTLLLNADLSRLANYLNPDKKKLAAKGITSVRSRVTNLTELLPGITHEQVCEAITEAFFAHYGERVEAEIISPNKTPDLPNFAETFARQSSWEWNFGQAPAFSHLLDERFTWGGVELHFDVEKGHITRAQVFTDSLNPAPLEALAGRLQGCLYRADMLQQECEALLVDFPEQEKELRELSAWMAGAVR", "assay": "western blot of GcvH lipoylation with anti-lipoic acid antibody", "assay_type": "biochemical", "settings": "1 mM lipoic acid, 5 mM ATP, 1 mM MgCl2, 5 mM DTT, 20 μM apo E. coli GcvH as acceptor, pH 7.0, 37 °C, 4 h"}, "Mhp-Lpl [3]": {"biological_target": "T1, Mhp-Lpl", "assay": "western blot of GcvH lipoylation with anti-lipoic acid antibody", "assay_type": "biochemical", "settings": "1 mM lipoic acid, 5 mM ATP, 1 mM MgCl2, 5 mM DTT, 20 μM apo Mhp H as acceptor, pH 7.0, 37 °C, 4 h"}}}
{"molecule": "Nc1ncnc2c1ncn2[C@@H]1O[C@H](COP(=O)(O)OC(=O)CCCC[C@@H]2CCSS2)[C@@H](O)[C@H]1O", "note": "[lipoyl-AMP]", "values": [{"measurement": "X-ray crystallography, 2.45 Å", "setting": "Mhp-Lpl [1]", "result": "lipoyl-AMP could be modeled into the density, despite its partial occupancy"}]}
{"molecule": "O=C(O)CCCC[C@@H]1CCSS1", "note": "(racemic) [lipoic acid]", "values": [{"measurement": "western blot of GcvH lipoylation with anti-lipoic acid antibody", "setting": "[2]", "result": "the large domain is able to catalyze Mhp H lipoylation"}, {"measurement": "western blot of GcvH lipoylation with anti-lipoic acid antibody", "setting": "E. coli LplA", "result": "E. coli LplA could successfully transfer lipoic acid to E. coli GcvH"}, {"measurement": "western blot of GcvH lipoylation with anti-lipoic acid antibody", "setting": "Mhp-Lpl [3]", "result": "lipoic acid was successfully transferred to the Mhp H protein by the MHP_RS01680-encoded protein"}]}
{"molecule": "Nc1ncnc2c1ncn2[C@@H]1O[C@H](COP(=O)(O)OP(=O)(O)OP(=O)(O)O)[C@@H](O)[C@H]1O", "note": "[ATP]", "values": [{"measurement": "western blot of GcvH lipoylation with anti-lipoic acid antibody", "setting": "[2]", "result": "including activation of lipoic acid with ATP to form lipoyl-AMP"}, {"measurement": "western blot of GcvH lipoylation with anti-lipoic acid antibody", "setting": "Mhp-Lpl [3]", "result": "Mhp-Lpl catalyzes the ATP-dependent activation of lipoate to lipoyl-AMP"}]}
